Experiments:
PAO1 biofilm formation = assay: Biofilm assay, crystal violet staining in 96-well microtiter plates; type: cell-based, P. aeruginosa; conditions: various concentrations of inhibitor, absorbance at 540 nm
Protocol: An overnight culture of bacteria grown in LB with shaking was diluted 1:100, and 100 μl aliquots added to 96-well microtiter plates incubated for 24-48 hours at 37° C. (O'Toole et al., (2000) J. Bacteriol. 182:425-431; O'Toole et al., (2000) Annu. Rev. Microbiol. 54:49-79). 0.1% crystal violet was added to each well for 15 minutes, rinsed three times with water then released with the addition of 200 μl of 95% ethanol. Absorbance was determined at 540 nm. For experiments with inhibitors, the following modifications in the assay were used: for oseltamivir (Tamiflu) (Roche, Nutley, N.J.), an overnight culture of bacteria was diluted 1:100 in different doses of inhibitor in LB and 100 μl aliquots plated and assayed as above; for peramivir (BioCryst, Birmingham, Ala.), an overnight culture of bacteria was diluted 1:100 in different doses of inhibitor in LB and incubated at room temperature for 48 hours then diluted 1:2 in LB and 100 μl aliquots plated and assayed as above (McKimm-Breschkin et al., (2003) Antimicrob. Agents. Chemother. 47:2264-2272; Sidwell et al., (2002) Expert Opin. Investig. Drugs 11:859-869). Each sample was tested in sextuplicate and the assay was repeated on three separate occasions and representative data shown. A mean and standard deviation were calculated and statistical significance determined using a two-tailed unpaired t test (Graph Pad Instat version 3.0, Graphpad Software, San Diego, Calif.) to test the null hypothesis that there was no difference in the amount of biofilm production under each test condition, as compared to the media alone or untreated control.

[1] = system: PAO1 enzyme (P. aeruginosa PAO1 neuraminidase); assay: Neuraminidase assay with fluorescent substrate 2'-(4-methylumbelliferyl)-α-D-N-acetylneuraminic acid; type: biochemical; conditions: peramivir 0.25 and 2.5 μM; 24-48 hours; fluorescence ex 360 nm / em 465 nm
Protocol: (§1) The PAO1 enzyme (10 μg/ml) was overexpressed and purified from E. coli using the pET28a vector (Novagen, San Diego, Calif.) and a control V. cholera neuraminidase (0.1 U/ml) (Calbiochem, San Diego, Calif.) were incubated with the fluorescent substrate 2′-(4-methylumbelliferyl)-α-D-N-acetylneuraminic acid (Sigma-Aldrich, St. Louis, Mo.) (25 μM in 0.9% NaCl) with or without peramivir (0.25 and 2.5 μM) for 24-48 hours and fluorescence read at excitation 360 nm and emission 465 nm. Each data point was performed in sextuplicate. A mean and standard deviation were calculated and statistical significance determined using a one-way analysis of variance with Bonferroni's post test (Graph Pad Instat version 3.0, Graphpad Software, San Diego, Calif.) to test the null hypothesis that there was no difference in the amount of fluorescence under each test condition, as compared to the untreated control.

V. cholera neuraminidase = biological target: T1, V. cholera neuraminidase (Vibrio cholerae serotype O1, UniProt P0C6E9); assay: as above; type: biochemical; conditions: peramivir 0.25 and 2.5 μM; 24-48 hours; fluorescence ex 360 nm / em 465 nm
T1 construct: purchased Calbiochem, San Diego, Calif
Protocol: as §1

T1 sequence (P0C6E9 25-781): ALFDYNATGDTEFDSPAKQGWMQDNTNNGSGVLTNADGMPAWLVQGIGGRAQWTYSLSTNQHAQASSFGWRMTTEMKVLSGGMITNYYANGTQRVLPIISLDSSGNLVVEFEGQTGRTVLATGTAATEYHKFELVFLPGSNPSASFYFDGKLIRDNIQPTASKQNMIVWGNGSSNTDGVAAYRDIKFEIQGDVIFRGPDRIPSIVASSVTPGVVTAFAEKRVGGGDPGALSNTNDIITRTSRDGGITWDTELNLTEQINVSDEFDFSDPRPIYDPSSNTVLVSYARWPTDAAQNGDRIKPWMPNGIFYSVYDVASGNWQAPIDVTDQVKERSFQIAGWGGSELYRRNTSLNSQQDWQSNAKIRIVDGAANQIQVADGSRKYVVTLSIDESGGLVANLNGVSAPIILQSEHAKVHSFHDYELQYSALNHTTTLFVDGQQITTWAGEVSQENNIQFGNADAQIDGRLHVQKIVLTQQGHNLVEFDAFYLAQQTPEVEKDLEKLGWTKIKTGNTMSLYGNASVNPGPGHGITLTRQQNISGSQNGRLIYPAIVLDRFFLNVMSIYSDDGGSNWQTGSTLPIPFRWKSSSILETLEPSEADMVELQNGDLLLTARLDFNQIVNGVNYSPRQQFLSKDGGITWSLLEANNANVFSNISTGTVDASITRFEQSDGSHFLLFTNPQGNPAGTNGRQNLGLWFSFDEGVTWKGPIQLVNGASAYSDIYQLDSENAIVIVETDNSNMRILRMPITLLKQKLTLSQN

Compound | inhibition of biofilm production by PAO1 (PAO1 biofilm formation) | inhibition of neuraminidase activity (PAO1 N'ase) [1] | inhibition of neuraminidase activity (V. cholera N'ase) (V. cholera neuraminidase)
CC(=O)N[C@H]1[C@H]([C@H](O)[C@H](O)CO)OC(C(=O)O)=C[C@@H]1N=C(N)N [zanamivir] | dose dependent inhibition of biofilm production |  | 
CCOC(=O)C1=C[C@@H](OC(CC)CC)[C@H](NC(C)=O)[C@@H](N)C1 [oseltamivir] | dose dependent inhibition of biofilm production |  | 
CCC(CC)[C@H](NC(C)=O)[C@@H]1[C@H](O)[C@@H](C(=O)O)C[C@H]1N=C(N)N [peramivir] | dose dependent inhibition of biofilm production | inhibited | inhibited

From patent US20090175805A1, “Neuraminidase Inhibitors and uses thereof” (priority 2006, published 2009)
